Data set [1] has as its system histone deacetylase (SEQ ID NO:2). The experiment in a line: Histone deacetylase assay with nuclear extract of recombinant HEK293 cells (3H-acetylated chicken core histones). To be noted: TSA 1 μM; 30° C. for 90 minutes; released radioactivity. It is filed as biochemical, human.
Procedure: Carboxy-terminal myc tagged histone deacetylase (SEQ ID NO:2) was cloned into a pcDNA3.1 vector and transfected into HEK293 cells. Recombinant clones were isolated and analyzed for histone deacetylase (HDAC) activity using the following procedure. Eight million recombinant or control cells were rinsed in 10 ml. of cold PBS, scraped, and spun at 500× g for 5 minutes. The cell pellet was rinsed with cold PBS and transferred to an Eppendorf tube. Nuclei were prepared by lysing the cells in 1 ml of Buffer A (10 mM HEPES, pH 7.5, 10 mM KCl, 1.5mM MgCl2, 0.5% NP40 and a cocktail of protease inhibitors without EDTA) on ice for 30 minutes. The lysate was spun at 1500× g for 5 minutes, then the supernatant was discarded. The pellet was washed in Buffer A without NP40. The nuclear pellet was sonicated three times for 5 seconds each on ice in 0.5 ml of 20 mM HEPES pH7.5, 1.5mM MgCl2, 10% glycerol and a cocktail of protease inhibitors without EDTA. The nuclear lysate was spun at 100,000× g for 30 min. Fifty μl aliquots of supernantant were stored at −80° C.
A HDAC assay was carried out in 100 μL of 25mM HEPES pH 7.5 buffer containing 0.1 mg/ml BSA, 1 mM MgCl2, 0.005% Triton X-100, ^3H-acetylated chicken core histones, and varying (0.5 to 4 μg) amounts of nuclear extracts at 30° C. for 90 minutes. […] Released radioactivity was counted as a measure of HDAC activity. […]
Data set [2] relates to human histone deacetylase. In words: Expression of human histone deacetylase in oligonucleotide-treated HCT116 cells, by Western blotting. It is filed as cell-based. The conditions noted are these: oligonucleotide 10 μM once per day for seven days. The method, then:
The cell line used for testing is the human colon cancer cell line HCT116. Cells are cultured in RPMI-1640 with 10-15% fetal calf serum at a concentration of 10,000 cells per milliliter in a volume of 0.5 ml and kept at 37° C. in a 95% air/5%CO2 atmosphere. Phosphorothioate oligoribonucleotides are synthesized on an Applied Biosystems Model 380B DNA synthesizer using phosphoroamidite chemistry. A sequence of 24 bases complementary to the nucleotides at position 1 to 24 of SEQ ID NO: 1 is used as the test oligonucleotide. As a control, another (random) sequence is used: 5'-[NT] ID NO:23). Following assembly and deprotection, oligonucleotides are ethanol-precipitated twice, dried, and suspended in phosphate buffered saline at the desired concentration. Purity of the oligonucleotides is tested by capillary gel electrophoresis and ion exchange HPLC. The purified oligonucleotides are added to the culture medium at a concentration of 10 μM once per day for seven days. […] This effect is not observed with the control oligonucleotide. After 3 to 7 days, the number of cells in the cultures is counted using an automatic cell counter. The number of cells in cultures treated with the test oligonucleotide (expressed as 100%) is compared with the number of cells in cultures treated with the control oligonucleotide.
On the technique in general: In western blotting, separated proteins are transferred to a membrane and probed.

The text below walks through data of patent US20020115177A1, “Regulation of human histone deacetylase” (priority 2000, published 2002).

Take `CC(/C=C/C(=O)NO)=C\[C@@H](C)C(=O)c1ccc(N(C)C)cc1` [TSA, Trichostatin A]: the “inhibition of HDAC activity of recombinant nuclear extract” value in data set [1] was “inhibited”.
Consider “control oligonucleotide: Control (random) sequence: 5′-TCAACTGACTAGATGTACATGGAC-5′ (SEQ ID NO:23) (TCAACTGACTAGATGTACATGGAC; listed as DNA, chemistry not fully specified)”, for which the “expression of human histone deacetylase as determined by Western blotting” value in data set [2] is on record as “not observed”.
